Here are results for 24 compounds from patent publication US20190375708A1 (VenatoRx Pharmaceuticals, Inc., priority 2018, published 2019).

The test system of series [1] is HBV replication in HepAD38 cells. The series is described as follows: Anti-HBV replication assay in HepAD38 cells (QPCR of extracellular HBV DNA). Format: cell-based, HBV (genotype D, serotype ayw). To be noted: Hepatitis B virus, 168 h, 7 days incubation, extracellular HBV DNA by QPCR, read-out: Anti-HBV EC50. The method in brief:
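HepAD38 cells (HepG2 carrying tet-repressible HBV genotype D genome) induced by tetracycline withdrawal, treated 7 days at 37 °C with compound ([…], 1-log10 dilutions). Extracellular HBV DNA quantified by QPCR against a standard curve, normalised to DMSO; EC50 from 4-parameter fit.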

Series [2] is described as follows: In vitro cytotoxicity assay (MTT cell viability) in HepG2 cells. To be noted: human. It is filed as cell-based, human. The method in brief: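 Using MTT conversion as the viability measure, HepG2 cells were incubated with compounds for 7 days (30 μM to 1.0 nM). Absorbance at 492 nm was normalized to vehicle and fitted to give CC50.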

As to `Cc1c(C(=O)Nc2ccc(F)c(F)c2)c2n(c1C(=O)C(=O)NCc1cnc(N)s1)CCCC2` [Example 455, 3-(2-(((2-aminothiazol-5-yl)methyl)amino)-2-oxoacetyl)-N-(3,4-difluorophenyl)-2-methyl-5,6,7,8-tetrahydroindolizine-1-carboxamide], the EC50 (commonly the midpoint of the concentration-response curve) in series [1] is below 50 nM. Moreover, the CC50 – broadly, the concentration that lowers cell viability or growth by half – at 7 days in series [2] lay within 5000 to 30000 nM.
Taken in the same sequence, the figures for `Cc1c(C(=O)Nc2ccc(F)c(F)c2)c2n(c1C(=O)C(=O)N[C@H]1C[C@H](O)C1)CCCC2` [Example 456, N-(3,4-difluorophenyl)-3-(2-(((1r,3r)-3-hydroxycyclobutyl)amino)-2-oxoacetyl)-2-methyl-5,6,7,8-tetrahydroindolizine-1-carboxamide] were 500 to 1000 nM and above 30000 nM.
As for `Cc1c(C(=O)Nc2ccc(F)c(F)c2)c2n(c1C(=O)C(=O)N[C@H]1COC[C@@H]1O)CCCC2` [Example 457, N-(3,4-difluorophenyl)-3-(2-(((3S,4R)-4-hydroxytetrahydrofuran-3-yl)amino)-2-oxoacetyl)-2-methyl-5,6,7,8-tettrahydroindolizine-1-carboxamide], in series [1], the EC50 is 50 to 499 nM. The 50% cytotoxic concentration (CC50) at 7 days in series [2] was above 30000 nM.
Taken in the same sequence, the figures for `Cc1c(C(=O)Nc2ccc(F)c(F)c2)c2n(c1C(=O)C(=O)N[C@H]1CCC[C@H]1O)CCCC2` [Example 458, N-(3,4-difluorophenyl)-3-(2-(((1S,2R)-2-hydroxycyclopentyl)amino)-2-oxoacetyl)-2-methyl-5,6,7,8-tetrahydroindolizine-1-carboxamide] were 500 to 1000 nM and 5000 to 30000 nM.
Taken in the same sequence, the figures for `Cc1c(C(=O)Nc2ccc(F)c(F)c2)c2n(c1C(=O)C(=O)NC1(CO)CC(F)(F)C1)CCCC2` [Example 459, 3-(2-((3,3-difluoro-1-(hydroxymethyl)cyclobutyl)amino)-2-oxoacetyl)-N-(3,4-difluorophenyl)-2-methyl-5,6,7,8-tetrahydroindolizine-1-carboxamide] were 50 to 499 nM and 5000 to 30000 nM.
For the compound `Cc1c(C(=O)Nc2ccc(F)c(F)c2)c2n(c1C(=O)C(=O)NC1(CO)CCC1)CCCC2` [Example 460, N-(3,4-difluorophenyl)-3-(2-((1-(hydroxymethyl)cyclobutyl)amino)-2-oxoacetyl)-2-methyl-5,6,7,8-tetrahydroindoline-1-carboxamide], the EC50 in series [1] was below 50 nM. The compound also came in with a CC50 at 7 days in series [2] of 5000 to 30000 nM.
Taken in the same sequence, the figures for `Cc1c(C(=O)Nc2ccc(F)c(F)c2)c2n(c1C(=O)C(=O)NCC(C)(C)CO)CCCC2` [Example 461, N-(3,4-difluorophenyl)-3-(2-((3-hydroxy-2,2-dimethylpropyl)amino)-2-oxoacetyl)-2-methyl-5,6,7,8-tetrahydroindolizine-1-carboxamide] were below 50 nM and 5000 to 30000 nM.
Turning to `Cc1c(C(=O)Nc2ccc(F)c(F)c2)c2n(c1C(=O)C(=O)NCC(C)(C)O)CCCC2` [Example 462, N-(3,4-difluorophenyl)-3-(2-((2-hydroxy-2-methylpropyl)amino)-2-oxoacetyl)-2-methyl-5,6,7,8-tetrahydroindolizine--1 carboxamide], the EC50 in series [1] is 50 to 499 nM. In addition, the CC50 at 7 days in series [2] was above 30000 nM.
In the same order, the values of `Cc1c(C(=O)Nc2ccc(F)c(F)c2)c2n(c1C(=O)C(=O)NC1(CO)CC1)CCCC2` [Example 463, N-(3,4-difluorophenyl)-3-(2-((1-(hydroxymethyl)cyclopropyl)amino)-2-oxoacetyl)-2-methyl-5,6,7,8-tetrahydroindolizine-1-carboxamide] are 50 to 499 nM and 5000 to 30000 nM.
Taken in the same sequence, the figures for `Cc1noc([C@H](C)NC(=O)C(=O)c2c(C)c(C(=O)Nc3ccc(F)c(F)c3)c3n2CCCC3)n1` [Example 464, (S)-N-(3,4-difluorophenyl)-2-methyl-3-(2-((1-(3-methyl-1,2,4-oxadiazol-5-yl)ethyl)amino)-2-oxoacetyl)-5,6,7,8-tetrahydroindolizine-1-carboxamide] were 50 to 499 nM and above 30000 nM.
Regarding `Cc1c(C(=O)Nc2ccc(F)c(Cl)c2)c2n(c1C(=O)C(=O)NC1(CO)CC(F)(F)C1)CCCC2` [Example 465, N-(3-chloro-4-fluorophenyl)-3-(2-((3,3-difluoro-1-(hydroxymethyl)cyclobutyl)amino)-2-oxoacetyl)-2-methyl-5,,6,7,8-tetrahydroindolizine-1-carboxamide], the EC50 in series [1] is below 50 nM. Further, the CC50 at 7 days in series [2] fell in the range of 5000 to 30000 nM.
In the same order, the values of `Cc1c(C(=O)Nc2ccc(F)c(Cl)c2)c2n(c1C(=O)C(=O)NCC(C)(C)CO)CCCC2` [Example 466, N-(3-chloro-4-fluorophenyl)-3-(2-((3-hydroxy-2,2-dimethylpropyl)amino)-2-oxoacetyl)-2-methyl-5,6,7,8-tetrahydroindolizine-1-carboxamide] are 50 to 499 nM and above 30000 nM.
In the same order, the values of `Cc1c(C(=O)Nc2ccc(F)c(Cl)c2)c2n(c1C(=O)C(=O)NCC(C)(C)O)CCCC2` [Example 467, N-(3-chloro-4-fluorophenyl)-3-(2-((2-hydroxy-2-methylpropyl)amino)-2-oxoacetyl)-2-methyl-5,6,7,8-tetrahydroindolizine-1-carboxamide] are 500 to 1000 nM and above 30000 nM.
`Cc1cc(NC(=O)c2c(C)c(C(=O)C(=O)NC(C)(C)C(F)(F)F)n3c2CCCC3)cnc1F` [Example 468, N-(6-fluoro-5-methylpyridin-3-yl)-2-methyl-3-(2-oxo-2-((1,1,1-trifluoro-2-methylpropan-2-yl)amino)acetyl)-5,6,7,8-tetrahydroindolizine-1-carboxamide]: the concentration for a half-maximal effect (EC50) in series [1] lay within 50 to 499 nM. Further, the CC50 at 7 days in series [2] is above 30000 nM.
On to `Cc1cc(NC(=O)c2c(C)c(C(=O)C(=O)N[C@H](C)C(F)(F)F)n3c2CCCC3)cnc1F` [Example 469, (R)-N-(6-fluoro-5-methylpyridin-3-yl)-2-methyl-3-(2-oxo-2-((1,1,1-trifluoropropan-2-yl)amino)acetyl)-5,6,7,8-tetrahydroindolizine-1-carboxamide], for which the concentration for a half-maximal effect (EC50) in series [1] was in the range of 500 to 1000 nM. This compound also gave a 50% cytotoxic concentration (CC50) at 7 days in series [2] of 5000 to 30000 nM.
`Cc1cc(NC(=O)c2c(C)c(C(=O)C(=O)N[C@@H](C)C(F)(F)F)n3c2CCCC3)cnc1F` [Example 470, (S)-N-(6-fluoro-5-methylpyridin-3-yl)-2-methyl-3-(2-oxo-2-((1,1,1-trifluoropropan-2-yl)amino)acetyl)-5,6,7,8-tetrahydroindolizine--1 carboxamide]: the EC50 in series [1] was 500 to 1000 nM. Also, in series [2], the CC50 at 7 days was in the range of 5000 to 30000 nM.
`Cc1noc([C@H](C)NC(=O)C(=O)c2c(C)c(C(=O)Nc3cnc(F)c(C)c3)c3n2CCCC3)n1` [Example 471, (S)-N-(6-fluoro-5-methylpyridin-3-yl)-2-methyl-3-(2-((1-(3-methyl-1,2,4-oxadiazol-5-yl)ethyl)amino)-2-oxoacetyl)-5,6,7,8-tetrahydroindolizine-1-carboxamide]: the EC50 in series [1] lay in the range of 500 to 1000 nM. The compound also yielded a half-maximal cytotoxic concentration (CC50) at 7 days in series [2] above 30000 nM.
Consider `Cc1noc([C@@H](C)NC(=O)C(=O)c2c(C)c(C(=O)Nc3cnc(F)c(C)c3)c3n2CCCC3)n1` [Example 472, (R)-N-(6-fluoro-5-methylpyridin-3-yl)-2-methyl-3-(2-((1-(3-methyl-1,2,4-oxadiazol-5-yl)ethyl)amino)-2-oxoacetyl)-5,6,7,8-tetrahydroindolizine-1-carboxamide], for which the concentration for a half-maximal effect (EC50) in series [1] was above 1000 nM. In series [2], this compound showed a half-maximal cytotoxic concentration (CC50) at 7 days above 30000 nM.
As to `Cc1cc(NC(=O)c2c(C)c(C(=O)C(=O)NCc3cnc(N)s3)n3c2CCCC3)cnc1F` [Example 473, 3-(2-(((2-aminothiazol-5-yl)methyl)amino)-2-oxoacetyl)-N-(6-ffluoro-5-methylpyridin-3-yl)-2-methyl-5,,6,7,8-tetrahydroindolizine--1 carboxamide], the concentration for a half-maximal effect (EC50) in series [1] is 500 to 1000 nM. This compound came in with a CC50 at 7 days in series [2] above 30000 nM.
In the case of `Cc1cc(NC(=O)c2c(C)c(C(=O)C(=O)NC3(CO)CC(F)(F)C3)n3c2CCCC3)cnc1F` [Example 474, 3-(2-((3,3-difluoro-1-(hydroxymethyl)cyclobutyl)amino)-2-oxoacetyl)-N-(6-fluoro-5-methylpyridin-3-yl)-2-methyl-5,6,7,8-tetrahydroindolizine-1-ccarboxamide], the 50% effective concentration (EC50) in series [1] lay in the range of 500 to 1000 nM. In series [2], this compound showed a half-maximal cytotoxic concentration (CC50) at 7 days above 30000 nM.
For `CC[C@H](C)NC(=O)C(=O)c1c(C)c(C(=O)Nc2cnc(F)c(C)c2)c2n1CCCC2` [Example 475, (S)-3-(2-(sec-butylamino)-2-oxoacetyl)-N-(6-fluoro-5-methylpyridin-3-yl)-2-methyl-5,6,7,8-tetrahydroindolizine-1-carboxamide], the EC50 in series [1] lay in the range of 500 to 1000 nM. In series [2], the half-maximal cytotoxic concentration (CC50) at 7 days is above 30000 nM.
For the compound `Cc1cc(NC(=O)c2c(C)c(C(=O)C(=O)NCC(C)(C)CO)n3c2CCCC3)cnc1F` [Example 476, N-(6-fluoro-5-methylpyridin-3-yl)-3-(2-((3-hydroxy-2,2-dimethylpropyl)amino)-2-oxoacetyl)-2-methyl-5,6,7,8-tetrahydroindolizine-1-carboxamide], the concentration for a half-maximal effect (EC50) in series [1] was above 1000 nM. For the same compound, the half-maximal cytotoxic concentration (CC50) at 7 days in series [2] was 5000 to 30000 nM.
As for `Cc1cc(NC(=O)c2c(C)c(C(=O)C(=O)NCC(C)(C)O)n3c2CCCC3)cnc1F` [Example 477, N-(6-fluoro-5-methylpyridin-3-yl)-3-(2-((2-hydroxy-2-methylpropyl)amino)-2-oxoacetyl)-2-methyl-5,6,7,8-tetrahydroindolizine-1-carboxamide], the EC50 in series [1] was above 1000 nM. Besides, the CC50 at 7 days in series [2] was above 30000 nM.
In the case of `Cc1cc(NC(=O)c2c(C)c(C(=O)C(=O)NC(C)(C)CO)n3c2CCCC3)cnc1F` [Example 478, N-(6-fluoro-5-methylpyridin-3-yl)-3-(2-((1-hydroxy-2-methylpropan-2-yl)amino)-2-oxoacetyl)-2-methyl-5,6,7,8-tetrahydroindoliizine-1-carboxamide], the EC50 in series [1] is above 1000 nM. This compound gave a CC50 at 7 days in series [2] above 30000 nM.
